The test system of experiment [1] is intraocular pressure (IOP) in normotensive monkeys. Description: Multidose study: twice-daily topical Compound A suspension with once daily topical latanoprost, IOP in conscious monkeys. Type of experiment: in vivo, cynomolgus monkeys (Macaca fascicularis). As to the method: Ten female, ocular normotensive cynomolgus monkeys (Macaca fascicularis), aged 3 to 4 years old at initiation of treatment, were acclimated to ocular topical dosing and repeated IOP measurements using a pneumatonometer (Model 30 Classic) without general anesthesia or sedation (conscious) and dosed as indicated in Table 1.
Intraocular pressure was measured from both eyes (three readings/eye/time interval with mean values represented in the data tables) beginning approximately 1 hour predose, at Time 0 (just prior to dosing), and after dosing at various time intervals. Mean IOP values and the percent change in IOP levels from the baseline level were calculated. The FIGS. 5 and 6 show summarized data from this phase of the study of the combined IOP mean values of treatments and standard deviation of the mean for the control. The control plot includes the combined mean values of all treatments (BSS alone and BSS in combination with Placebo). The mean IOP levels in the control eye ranged from 21 to 22 mmHg.

For experiment [2] the test system is unchanged. In words: IOP after single topical ocular dosing of Compound A with or after latanoprost in conscious normotensive monkeys (Treatments 1-5). Type of experiment: in vivo, cynomolgus monkeys (Macaca fascicularis). The following applies: pre-clinical studies. As to the method:
Compound A was administered in two different formulations: […]
The aqueous formulation comprised of the following: […]
The control in the first treatment was a 40 mcL composition of 0.8% sodium chloride (NaCl), 0.15% citrate, 0.01% benzalkonium chloride, 0.3% polysorbate 80, and 0.7% sodium (Na) carboxymethylcellulose.
In the third treatment, 10 monkeys received latanoprost (Xalatan™) dosed via 2 drops at 15 mcL apart (at a concentration of 50 mcg/mL) for a total dose of 1.5 mcg in one study eye and 2 drops of saline vehicle in the contralateral eye. This treatment was performed at two separate times with a sufficient washout between treatments. The IOPs of both the study eye and contralateral eye were measured repeatedly using a calibrated pneumotonometer following an application of a topical anesthetic (proparacaine).
In the fourth treatment, 10 monkeys received latanoprost (Xalatan™) topically dosed via 2 drops at 15 mcL apart (at a concentration of 50 mcg/mL) for a total dose of 1.5 mcg in one study eye and saline in the contralateral eye. […] The intraocular pressures (IOP) of both the study eye and contralateral eye were measured repeatedly using a calibrated pneumotonometer following an application of a topical anesthetic (proparacaine). […]

[3] abbreviates: Compound A 65 μg/dose BID plus latanoprost 1.5 μg QD, right eye.

In the case of `CC(C)OC(=O)CCC/C=C\C[C@@H]1[C@@H](CC[C@@H](O)CCc2ccccc2)[C@H](O)C[C@@H]1O` [latanoprost, isopropyl-(Z)-7[(1R,2R,3R,5S)3,5-dihydroxy-2-[(3R)-3-hydroxy-5-phenylpentyl]cyclopentyl]-5-heptenoate, reference compound], the “reduction from the mean IOP baseline levels” value in experiment [1] (latanoprost alone 1.5 μg/dose once daily topical, right eye, at peak trough) is “approximately 13%”. Besides, the “reduction of mean IOP levels at peak trough” value in experiment [1] (latanoprost alone 1.5 μg/dose once daily topical, right eye, repeated dosing, n=10) is given as “about 2 mm Hg”. In addition, the “IOP of treated eyes versus control eyes” value in experiment [1] (latanoprost alone, after repeated treatments for two weeks, including pre-dose times) is reported as “slightly lower than that of the control eyes”.

For `O=[N+]([O-])OC[C@H]1O[C@@H](n2cnc3c(NC4CCCC4)ncnc32)[C@H](O)[C@@H]1O` [Compound A, ((2R,3S,4R,5R)-5-(6-(cyclopentylamino)-9H-purin-9-yl)-3,4-dihydroxytetrahydrofuran-2-yl)methyl nitrate], the “IOP reduction by the combination of Compound A and latanoprost” value in experiment [2] is reported as “significant IOP reduction”. In addition, the “reduction in IOP compared with latanoprost alone” value in experiment [1] (Compound A 65 μg/dose BID (130 μg/day) suspension plus latanoprost 1.5 μg QD, right eye, 1 hour after each Compound A dose (Time 0 and 5 hours)) was “greater reduction in IOP”. Further, in experiment [1] (setting [3]), the “IOP reduction at peak trough after the first daily dose” value is on record as “approximately 12%” and the “IOP reduction at peak trough after the second daily dose” value is on record as about 17%.

For the origin of these results see patent US8877732B2, “Combination, kit and method of reducing intraocular pressure” (Inotek Pharmaceuticals Corporation, priority 2010, dated 2014).
